Measured values reported in patent publication EP0408371B1, “Hemoregulatory peptides” (SMITHKLINE BEECHAM CORPORATION, priority 1989, dated 1994).
Like-named read-outs stand apart in the source and are kept apart here. Square brackets hold non-standard residues; d marks the D form. Ends that are not written are not given here. pGlu = O=C1CC[C@@H](C(=O)O)N1

Assays:
[1] = tested on: human bone marrow stromal cell line, C6; experiment: Induction of colony stimulating activity by stromal cells; supernatant tested in soft agar assay (CFU-C); type: cell-based; details: 5% Supernatant, Lewis rat bone marrow cells
Procedure: The human bone marrow stromal cell line, C6, is grown to confluency in plastic tissue culture dishes in RPMI-1640 medium and 5% FBS. On the day prior to the experiment this medium is changed to DMEM without added serum. To these cultures, the compounds are added for one hour, then washed from the cultures. The medium is replaced with fresh DMEM and the cells are incubated for 24 hours at 37°C, 5% CO₂. After 24 hours the C6 cell culture supernatant is collected, sterile filtered, and frozen until it can be assayed for the presence of hematopoietic colony stimulating activity (CSA) as set forth below.
Bone marrow cells are obtained from Lewis rats. They are adjusted to 10⁶ cells/ml in DMEM without serum. A single later agar system utilizing the following is used: DMEM enriched with nutrients (NaHCO₃, pyruvate, amino acids, vitamins, and HEPES buffer); 0.3% Bacto agar, and 20% Lewis rat serum. To this are added dilutions of C6 cell line supernatant (10-2.5%) from above along with rat bone marrow cells (final concentration = 10⁵ cells/ml). The agar plates are incubated at 37°C, 5% CO₂ for 7-8 days. Colonies of proliferating bone marrow cells (CFU-C) are counted utilizing a microscope. The number of agar colonies counted is proportional to the amount of CSA present within the C6 bone marrow stromal cell line supernatant.

[2] = tested on: human CFU-gm; details: human CFU-gm in vitro; cited from earlier work
[3] = tested on: murine myelopoietic cells; details: in vivo; cited from earlier work
[4] = tested on: murine CFU-gm; details: murine CFU-gm in vitro; cited from earlier work
[5] = tested on: myelopoietic cells; details: in vitro; cited from earlier work
[6] = tested on: myelopoietic cells; details: in vivo; cited from earlier work

(pGlu-Glu-Asp)₂-Sub-(Lys)₂ [Example 2]
Hematopoietic Colony Stimulating Activity, Percent of Control ([1]; Dose 0.01 ng/ml): 97% of Control | Hematopoietic Colony Stimulating Activity, Percent of Control ([1]; Dose 0.1 ng/ml): 154% of Control | Hematopoietic Colony Stimulating Activity, Percent of Control ([1]; Dose 1 ng/ml): 188% of Control | Hematopoietic Colony Stimulating Activity, Percent of Control ([1]; Dose 10 ng/ml): 207% of Control | Hematopoietic Colony Stimulating Activity, Percent of Control ([1]; Dose 100 ng/ml): 241% of Control | Hematopoietic Colony Stimulating Activity, Percent of Control ([1]; Dose 1000 ng/ml): 192% of Control

HP-5: oxidation product of pGlu-Glu-Asp-Cys-Lys, a dimer formed by disulfide bridges (EP-A-0267741) ([pGlu]EDCK; also: disulfide-linked dimer (oxidation product))
colony formation of CFU-gm [2]: strongly stimulates colony formation | effect on murine myelopoietic cells [3]: up regulates murine myelopoietic cells | colony formation of CFU-gm [4]: strongly stimulates colony formation

pGlu-Glu-Asp-Cys-Lys ([pGlu]EDCK)
effect on myelopoietic cells [5]: selective inhibitory effect | effect on myelopoietic cells [6]: selective inhibitory effect
